Measurements as given in patent US20080255206A1, “Rxr Agonists and Antagonists, Alone or in Combination with Ppar Ligands, in the Treatment of Metabolic and Cardiovascular Diseases” (priority 2005, published 2008).

Columns and labels:
RARγ = biological target: T1, RARγ (Homo sapiens, UniProt P13631); assay: Retinoid binding assay, RARγ; conditions: read-out: Binding Affinity IC50 RAR γ
T1 construct: The DEF domains of RAR's and the full length RXR's, expressed in E.coli; made in house; host or cells: E. coli
T1 sequence (P13631 185-419 limits assumed): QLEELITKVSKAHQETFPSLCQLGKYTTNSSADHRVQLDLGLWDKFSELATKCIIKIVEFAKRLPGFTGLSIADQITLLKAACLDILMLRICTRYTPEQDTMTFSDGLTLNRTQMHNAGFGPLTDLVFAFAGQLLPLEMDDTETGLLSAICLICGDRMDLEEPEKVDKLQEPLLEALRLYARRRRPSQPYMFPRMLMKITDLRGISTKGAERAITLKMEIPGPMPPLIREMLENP
Text: (§1) The DEF domains of RAR's and the full length RXR's, expressed in E.coli, are used to measure competitive retinoid binding. […] 9-cis retinoic acid (for RXR's), respectively. […] Separation of bound from free radioactivity is achieved by charcoal/dextran (RAR's) or by desalting columns (RXR's). […] Retinoid Activation Assays

RXRγ [1] = biological target: T2, RXRγ (Homo sapiens, UniProt P48443); assay: Retinoid binding assay, RXRγ; parameters: made in house; host or cells: E. coli; conditions: [3H] 9-cis retinoic acid 20 nM; read-out: Binding Affinity IC50 RXR γ
T2 sequence (P48443 1-463): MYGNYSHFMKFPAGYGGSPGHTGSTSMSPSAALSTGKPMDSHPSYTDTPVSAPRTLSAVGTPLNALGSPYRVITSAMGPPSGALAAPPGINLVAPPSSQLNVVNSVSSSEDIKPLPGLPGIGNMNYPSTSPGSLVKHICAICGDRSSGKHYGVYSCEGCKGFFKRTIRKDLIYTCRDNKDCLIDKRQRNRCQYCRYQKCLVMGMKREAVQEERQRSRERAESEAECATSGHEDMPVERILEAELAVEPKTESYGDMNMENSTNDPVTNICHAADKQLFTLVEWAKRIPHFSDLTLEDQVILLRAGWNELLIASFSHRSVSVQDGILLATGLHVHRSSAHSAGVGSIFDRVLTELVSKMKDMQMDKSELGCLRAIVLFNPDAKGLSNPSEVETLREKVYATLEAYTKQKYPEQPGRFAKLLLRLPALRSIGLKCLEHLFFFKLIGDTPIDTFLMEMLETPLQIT
Text: as §1

RXRα Homodimer = biological target: T3, RXRα Homodimer (Homo sapiens, UniProt P19793); assay: RXRα homodimer activation (transactivation) assay; format: cell-based
T3 construct: expressed in transfected cells; host or cells: mammalian cells (BHK21, CV1, etc)
T3 sequence (P19793 1-462): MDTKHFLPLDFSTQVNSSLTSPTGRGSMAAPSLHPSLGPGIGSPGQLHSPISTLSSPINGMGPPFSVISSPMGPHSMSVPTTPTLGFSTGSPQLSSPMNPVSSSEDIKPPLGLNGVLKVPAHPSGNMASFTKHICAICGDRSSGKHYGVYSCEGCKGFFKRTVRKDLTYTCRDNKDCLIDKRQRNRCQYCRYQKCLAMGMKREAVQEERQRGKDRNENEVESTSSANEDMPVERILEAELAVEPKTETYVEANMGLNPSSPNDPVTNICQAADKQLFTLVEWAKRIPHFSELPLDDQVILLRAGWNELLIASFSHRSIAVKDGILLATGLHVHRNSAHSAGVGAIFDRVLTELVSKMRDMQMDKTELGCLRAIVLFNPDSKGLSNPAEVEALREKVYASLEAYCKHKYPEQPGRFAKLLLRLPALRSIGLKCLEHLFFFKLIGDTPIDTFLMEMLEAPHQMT
Text: (§2) Nuclear hormone receptor (NHR) ligand dependent transcriptional transactivation assay.
This secondary in vitro functional assay to characterize hits from the primary ligand binding screens is a GAL4-LBD transactivation assay. The Gal4-LBD protein consists of an in frame fusion of the transcription factor galactose 4 DNA binding domain from S.cerevisiae with the ligand binding domain (LBD) of a particular NHR. Briefly, a plasmid construct expressing the recombinant chimeric receptor is co-transfected into mammalian cells (BHK21, CV1, etc) with a luciferase reporter plasmid containing several copies in tandem of the GAL4 binding sites (promoter recognition elements) upstream from the minimal promoter driving the luciferase gene. The transfected cells are treated with compounds for 12-24 hours, lysates are produced and assayed for luciferase activity and normalized to internal standards such as GH, growth hormone or SEAP, secreted alkaline phosphatase. Ligand binding stabilizes the LBD conformation that recruits endogenous co-factors that mediate eventually the increased transcriptional activity of the luciferase reporter gene. By comparing the activation profile of a reference ligand or a natural ligand, the EC50 values for agonistic activity of a particular ligand can be measured. The extent of activation that can be measured is indicative of a partial, respectively full agonistic activity of a ligand. […]

RXRγ [2] = biological target: T2, RXRγ; assay: Retinoid activation assay, RXRγ (Schneider SL-3 cells, luciferase reporter); format: cell-based; conditions: read-out: Activation EC50 RXR γ
Procedure: Full length RXR cDNA is used for transfection. As reporter system, the luciferase gene is used in a construct with three copies of a RXR response element from rat CRBP gene, (formerly RARE from betaRAR gene), fused to alcoholdehydrogenase gene promoter in the plasmid pGL2-basic. Schneider SL-3 cells from Drosophila are transiently transfected 3-4 h before the experiment by the Ca-phosphate-DNA coprecipitation method. […] At the end of the incubation, the cell supernatants are assayed for luciferase activity. Results are given as EC50 (nM), the concentration leading to half-maximal activation.

PPARγ/RXRα Heterodimer = biological target: T4, PPARγ/RXRα Heterodimer (Homo sapiens, UniProt P19793); assay: PPARγ/RXRα heterodimer activation (transactivation) assay; format: cell-based
T4 construct: co-transfected with plasmids expressing the full length RXR heteropartner receptor; expressed in transfected cells
T4 sequence (P19793 1-462): T3 sequence (P19793 1-462)
T4 sequence (P37231 1-505 partner): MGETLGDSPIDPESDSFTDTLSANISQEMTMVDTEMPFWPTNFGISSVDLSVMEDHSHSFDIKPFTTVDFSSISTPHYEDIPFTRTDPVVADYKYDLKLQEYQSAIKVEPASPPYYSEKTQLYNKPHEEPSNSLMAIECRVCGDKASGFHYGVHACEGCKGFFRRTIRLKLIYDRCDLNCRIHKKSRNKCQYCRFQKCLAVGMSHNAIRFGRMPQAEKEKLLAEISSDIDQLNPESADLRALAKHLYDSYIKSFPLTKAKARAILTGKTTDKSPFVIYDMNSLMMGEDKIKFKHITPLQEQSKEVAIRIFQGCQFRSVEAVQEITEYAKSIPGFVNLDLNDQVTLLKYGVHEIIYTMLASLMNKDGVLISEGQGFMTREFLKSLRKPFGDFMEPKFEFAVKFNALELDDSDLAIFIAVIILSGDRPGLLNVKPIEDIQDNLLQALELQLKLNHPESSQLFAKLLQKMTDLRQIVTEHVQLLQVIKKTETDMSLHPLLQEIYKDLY
Text: as §2
Heterodimer reporter assays are potentially more important selection criteria for synthetic agonistic NHR ligands as they embody a more natural situation. Basically plasmids expressing the recombinant full length NHR are co-transfected with plasmids expressing the full length RXR heteropartner receptor and a reporter plasmid containing several copies of the natural responsive elements for the respective NHR driving the luciferase reporter gene.

Row | SMILES | IC50 (RARγ) [nM] | IC50 (RXRγ [1]) [nM] | EC50 (RXRα Homodimer) [nM] | EC50 (RXRγ [2]) [nM] | EC50 (PPARγ/RXRα Heterodimer) [nM]
1 | CCCCOc1c([C@@H]2C[C@@H]2/C=C/C(C)=C/C(=O)O)cc(C(C)(C)C)cc1C(C)(C)C (racemic) [Compound 16, (2E,4E)-(1RS,2RS)-5-[2-(3,5-Di-tert-butyl-2-butoxy-phenyl)-cyclopropyl]-3-methyl-penta-2,4-dienoic acid] | > 10000 | 82 | > 10000 | ≥ 10000 | > 10000
2 | CC1=C(/C=C/C2=C(/C=C/C(C)=C/C(=O)O)CCCCC2)C(C)(C)CCC1 [Compound 1, (2E,4E)-3-methyl-5-[2-[(E)-2-(2,6,6-trimethyl-1-cyclohexen-1-yl)ethenyl]-1-cyclohepten-1-yl]-2,4-pentadienoic acid] | > 10000 | 150 | 1.4 | ≥ 10000 | 70
3 | CC(/C=C/c1sccc1-c1ccc2c(c1)C(C)(C)CCC2(C)C)=C\C(=O)O [Compound 9] | 3600 | 230 | 2.5 | 90 | 38
4 | CC1=C(/C=C/c2sccc2/C=C/C(C)=C/C(=O)O)C(C)(C)CCC1 [Compound 5, (2E,4E)-3-Methyl-5-[2-[(E)-2-(2,6,6-trimethyl-1-cyclohexen-1-yl)ethenyl]-3-thienyl]-2,4-pentadienoic acid] | 5300 | 160 | 0.8 | ≥ 10000 | 1.5
5 | CC(/C=C/c1ccccc1-c1ccc2c(c1)C(C)(C)CCC2(C)C)=C\C(=O)O [Compound 7, (2E,4E)-3-methyl-5-[2-(5,5,8,8-tetramethyl-5,6,7,8-tetrahydro-naphthalen-2-yl)-phenyl]-penta-2,4-dienoic acid] | 6300 | 970 | 6 | 400 | 
6 | CC1=C(/C=C/C2=C(/C=C/C(C)=C/C(=O)O)CCC2)C(C)(C)CCC1 [Compound 14, (2E,4E)-3-Methyl-5-[2-[(E)-2-(2,6,6-trimethyl-1-cyclohexen-1-yl)ethenyl]-1-cyclopenten-1-yl]-2,4-pentadienoic acid] |  | 140 | 6 | 50 | 7
7 | CC(/C=C/C1=C(c2ccc3c(c2)C(C)(C)CCC3(C)C)CCC1)=C\C(=O)O [Compound 12, (2E,4E)-3-Methyl-5-[2-(5,5,8,8-tetramethyl-5,6,7,8-tetrahydro-naphthalen-2-yl)-cyclopent-1-enyl]-penta-2,4-dienoic acid] | 6600 | 120 | 9 | 150 | 7.7
8 | CCOc1c(\C(C)=C/C=C/C(C)=C/C(=O)O)cc(C(C)(C)C)cc1C(C)(C)C [Compound 21, (2E,4E,6Z)-7-[3,5-Bis(1,1-dimethylethyl)-2-ethoxyphenyl]-3-methyl-2,4,6-octatrienoic acid/ethyl ester] | > 10000 | 57 | > 10000 | ≥ 10000 | 1.25
9 | C/C(=C/C=C/C(C)=C/C(=O)O)c1cc2c(cc1C)C(C)(C)CCCC2 [Compound 13, (2E,4E,6Z)-3-Methyl-7-(3,5,5,-trimethyl-6,7,8,9-tetrahydro-5H-benzocyclohepten-2-yl)-octa-2,4,6-trienoic acid] | 5300 | 147 | 1.5 | 400 | 23
10 | CC1=C(C#CC2=C(/C=C/C(C)=C/C(=O)O)CCCCC2)C(C)(C)CCC1 [Compound 18] | > 10000 | 65 | > 10000 | ≥ 10000 | > 10000
11 | CCOc1c([C@@H]2C[C@@H]2/C=C/C(C)=C/C(=O)O)cc(C(C)(C)C)cc1C(C)(C)C (racemic) [Compound 17, (2E,4E)-(1RS,2RS)-5-[2-(3,5-Di-tert-butyl-2-ethoxy-phenyl)-cyclopropyl]-3-methyl-penta-2,4-dienoic acid] | > 10000 | 69 | > 10000 | ≥ 10000 | > 10000
12 | CCC1(CC)CCC(C)(C)c2cc(\C(C)=C/C=C/C(C)=C/C(=O)O)ccc21 [Compound 24, (2E,4E,6Z)-7-(5,5-Diethyl-8,8-dimethyl-5,6,7,8-tetrahydro-naphthalen-2-yl)-3-methyl-octa-2,4,6-trienoic acid] | 33 | 660 | > 10000 | ≥ 10000 | 3.5
13 | CC(/C=C/C1=C(c2ccc3c(c2)C(C)(C)CCC3(C)C)CCCC1)=C\C(=O)O [Compound 6, (2E,4E)-3-Methyl-5-[2-(5,5,8,8-tetramethyl-5,6,7,8-tetrahydro-naphthalen-2-yl)-cyclohex-1-enyl]-penta-2,4-dienoic acid] | > 10000 | 240 | 19 | 140 | 
14 | CC(/C=C/[C@@H]1C[C@@H]1c1ccc2c(c1)C(C)(C)CCC2(C)C)=C\C(=O)O (racemic) [Compound 4, (2E,4E)-3-methyl-5-[(1RS,2RS)-2-(5,5,8,8-tetramethyl-5,6,7,8-tetrahydro-naphthalen-2-yl)-cyclopropyl]-penta-2,4-dienoic acid] | 7500 | 127 | 3.5 | 50 | 
